These results are taken from patent US20230037414A1, “INHIBITORS OF ADRENOMEDULLIN FOR THE TREATMENT OF ACUTE MYELOID LEUKEMIA BY ERADICATING LEUKEMIC STEM CELLS” (INSERM (INSTITUT NATIONAL DE LA SANTÉ ET DE LA RECHERCHE …, priority 2019, published 2023).

In one assay the test system is MOLM-14 cells. Briefly: EC50 experiments (MTS cell viability) on MOLM-14 cells FACS-sorted from xenografted mice. Format: cell-based. To be noted: Homo sapiens, MOLM-14, 168 h, after one week of in vitro culture. On the procedure: The day before experiment, cells were adjusted to 3×10^5 cells/ml final concentration and plated in a 96-well plate (final volume: […]). To measure half-maximal inhibitory concentration (EC50), increased concentrations of AraC or idarubicin were added to the medium. After two days, 20 µl per well of MTS solution (Promega) was added for two hours and then absorbance was recorded at 490 nm with a 96-well plate reader. The doses that decrease cell viability to 50% (EC50) were analyzed Nonlinear regression log [inhibitor] vs. normalized response-variable slope with GraphPad Prism software.

For a further assay, the system named is primary AML samples. Briefly: PDX model of AraC treatment in AML (NSG mice). Format: in vivo.
Setting [1] is: MOLM-14 shCTR cells from AraC treated mice.
Where [2] appears, read: MOLM-14 shCTR cells from vehicle-treated mice.

Procedure for primary AML samples: NSG mice were produced at the Genotoul Anexplo platform at Toulouse (France) using breeders obtained from Charles River Laboratories. Transplanted mice were treated with antibiotic (Baytril) for the duration of the experiment. For experiments assessing the response to chemotherapy in PDX models, mice (6-9 weeks old) were sublethally treated with busulfan (30 mg/kg) 24 hours before injection of leukemic cells. Leukemia samples were thawed in 37° C. water bath, washed in IMDM 20% FBS, and suspended in Hank's Balanced Salt Solution at a final concentration of 1-10×10^6 cells per 200 μL for tail vein injection in NSG mice. Eight to 18 weeks after AML cell transplantation and when mice were engrafted (tested by flow cytometry on peripheral blood or bone marrow aspirates), NSG mice were treated by daily intraperitoneal injection of 60 mg/kg AraC or vehicle (PBS) for 5 days. AraC was kindly provided by the pharmacy of the TUH. Mice were sacrificed at day 8 to harvest human leukemic cells from murine bone marrow. For AML cell lines, 24 hours before injection of leukemic cells mice were treated with busulfan (20 mg/kg). Then cells were thawed and washed as previously described, suspended in HBSS at a final concentration of 2×106 per 200 μL before injection into bloodstream of NSG mice. […] Daily monitoring of mice for symptoms of disease (ruffled coat, hunched back, weakness, and reduced mobility) determined the time of killing for injected animals with signs of distress.
At the end of experiment, NSG mice were humanely killed in accordance with European ethics protocols. […] The number of AML cells/μL peripheral blood and number of AML cells in total cell tumor burden (in bone marrow and spleen) were determined by using CountBright beads (Invitrogen) using described protocol.
Proteins were resolved using 4% to 12% polyacrylamide gel electrophoresis Bis-Tris gels (Life Technology, Carlsbad, Calif.) and electrotransferred to nitrocellulose membranes. […] Quantification of chemiluminescent signals was done with the GeneTools software from Syngene.

On to `Nc1ccn([C@@H]2O[C@H](CO)[C@@H](O)[C@@H]2O)c(=O)n1` [AraC, cytarabine], for which the values for the EC50 with MOLM-14 cells (setting [1]) and in the assay on MOLM-14 cells (setting [2]) were 7000 nM and 2000 nM, respectively. The “percentage of human cells in the bone marrow of mice” value in the assay with primary AML samples (AraC vs PBS treated mice) is reported as “reduced”. For the same compound, in the assay with primary AML samples (bone marrow supernatant, western blot, AraC vs PBS), the “levels of secreted ADM in the bone marrow of mice” value is on record as “reduced”. For the same compound, the “percentage of positive blasts for CALCRL” value in the assay with primary AML samples (minimal residual disease after 60 mg/kg/day AraC for 5 days, day 8, 5.6% without AraC) is recorded as 23%.
For `CC(=O)[C@]1(O)Cc2c(O)c3c(c(O)c2[C@@H](O[C@H]2C[C@H](N)[C@H](O)[C@H](C)O2)C1)C(=O)c1ccccc1C3=O` [idarubicin], the EC50 with MOLM-14 cells (setting [1]) is 61 nM; in the assay on MOLM-14 cells (setting [2]), 29 nM.
